Measurements from US12220438B2, “Protein based cannabis compositions” (IZUN PHARMACEUTICALS CORP., priority 2019, dated 2025).
Read-outs that look alike come from different tables or passages of the source.

How the values were obtained:
[1] = Attempt to dissolve pure CBD in beverages; type: physicochemical; conditions: 2.7 mg in 25 ml of beverage
Experimental: Samples of still water (Mei Eden bottled water), carbonated water (made by Tempo Soda), alcoholic lager beer (Carlsberg) and orange juice (made by Primor) were prepared using each of CBD-Whey and Whey only. 25 ml of beverage was prepared for each sample, and 45 mg of CBD-Whey (which contains 2.7 mg of CBD). […] The study continued with comparison of CBD-Whey and Whey only. Volunteers, who were Cannabis naïve, were given 8 samples, in a randomized order and were asked to fill a questionnaire relating to appearance, taste and smell of samples. Evaluations were performed by 6 volunteers for each of the 8 samples (four beverages with CBD-Whey and four beverages with Whey only.)

[2] = THC in plasma, intravenously, 5 mg/kg single dose
[3] = male, Sprague-Dawley, rat, plasma, iv, 5 mg/kg

Row | Structure (SMILES) | dissolution in beverages [1] | AUC0−∞/D [2] | CL/F [2] | Cmax/D [2] | F (THC, intravenously, 5 mg/kg single dose (reference)) | AUC(0-inf) [3] | AUC(0-t) [3] | Cmax [3] | Tmax [3] | half-life (male, Sprague-Dawley, rat, plasma, iv, 5 mg/kg, t1/2, THC in plasma, intravenously, 5 mg/kg single dose) | half-life (male, Sprague-Dawley, rat, plasma, iv, 5 mg/kg, terminal t1/2, after IV administration, analysis that included the 24 hr time point)
1 | C=C(C)[C@@H]1CCC(C)=C[C@H]1c1c(O)cc(CCCCC)cc1O [CBD, cannabidiol] | crystalline CBD was visible |  |  |  |  |  |  |  |  |  | 
2 | CCCCCc1cc(O)c2c(c1)OC(C)(C)[C@@H]1CCC(C)=C[C@@H]21 [IV, tetrahydrocannabinol] |  | 121 kg·ng·h/mL/mg | 137.2 mL/min/kg | 202 kg·ng/mL/mg | 100% | 607 ng·h/mL | 575 ng·h/mL | 1010 ng/mL | 5 min | 648 min | ~600 min
